Measurements: patent US7037533B2 (priority 2001, dated 2006)
Where two headings read alike, the source gives them in different places.

Experiments:
[1] = cited from earlier work
purified CYP 1A2 = molecular target: T1, purified CYP 1A2 (Homo sapiens, UniProt P05177); experiment: purified RECO System CYP 1A2 enzyme activity with methoxyresorufin
T1 sequence (P05177 2-516 limits assumed): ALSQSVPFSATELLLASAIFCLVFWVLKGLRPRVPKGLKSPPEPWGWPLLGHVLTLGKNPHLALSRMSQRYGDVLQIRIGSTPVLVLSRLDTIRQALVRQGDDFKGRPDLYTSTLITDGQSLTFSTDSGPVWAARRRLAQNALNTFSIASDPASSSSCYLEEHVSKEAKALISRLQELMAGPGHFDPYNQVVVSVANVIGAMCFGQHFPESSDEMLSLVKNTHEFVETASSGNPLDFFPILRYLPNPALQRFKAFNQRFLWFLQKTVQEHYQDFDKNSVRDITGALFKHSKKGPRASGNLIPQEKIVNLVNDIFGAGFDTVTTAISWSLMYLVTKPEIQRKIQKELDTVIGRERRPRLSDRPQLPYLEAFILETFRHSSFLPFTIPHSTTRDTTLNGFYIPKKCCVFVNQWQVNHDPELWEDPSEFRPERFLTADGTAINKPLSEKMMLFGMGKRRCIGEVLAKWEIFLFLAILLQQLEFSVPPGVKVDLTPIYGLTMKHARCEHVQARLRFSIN
Method: A composition of enzyme mixture comprises 0.5 uM CYP1A2, 0.2 μM NADPH P450 reductase, 0.5 μg/uL CHAPS, 0.1 μg/uL liposomes (dilauroyl phosphotidylcholine, dileoyl phosphotidylcholine, dilauroyl phosphotidylcholine (1:1:1)), 3 mM reductive glutathion, and 50 mM HEPES/KOH (pH 7.4). A buffer solution is 1 M potassium/sodium phosphate. 768 μl of tertiary distilled water, 126.7 μl of CYP 1A2 buffer solution, and 5.3 μl of 1 mM methoxyresorufin were added sequentially to make […] of solution and heated at 37° C. 5 μl of enzyme activation inhibiting material was added into 85 μl of buffer solution and substrate mixture to make final concentration 0.1, 0.5, 1.0, and 2.0 mg/ml respectively. The reaction started at 37° C. while adding 5 μl of CYP 1A2 enzyme mixture and 5 μl of 50 mM NADPH. The reaction was maintained for 20 minutes and stopped by adding 1 ml of methanol. The enzyme activity was measured by using a RF-5301 PC spectrofluoro photometer (SHIMADZU, Japan).

[2] = test system: breast cancer, leukemia, uterus cancer, stomach cancer and colon cancer cell strain; conditions: cited from earlier work
CYP 1A2 [3] = molecular target: T2, CYP 1A2 (Rattus norvegicus, UniProt P04799)
T2 sequence (P04799 1-513): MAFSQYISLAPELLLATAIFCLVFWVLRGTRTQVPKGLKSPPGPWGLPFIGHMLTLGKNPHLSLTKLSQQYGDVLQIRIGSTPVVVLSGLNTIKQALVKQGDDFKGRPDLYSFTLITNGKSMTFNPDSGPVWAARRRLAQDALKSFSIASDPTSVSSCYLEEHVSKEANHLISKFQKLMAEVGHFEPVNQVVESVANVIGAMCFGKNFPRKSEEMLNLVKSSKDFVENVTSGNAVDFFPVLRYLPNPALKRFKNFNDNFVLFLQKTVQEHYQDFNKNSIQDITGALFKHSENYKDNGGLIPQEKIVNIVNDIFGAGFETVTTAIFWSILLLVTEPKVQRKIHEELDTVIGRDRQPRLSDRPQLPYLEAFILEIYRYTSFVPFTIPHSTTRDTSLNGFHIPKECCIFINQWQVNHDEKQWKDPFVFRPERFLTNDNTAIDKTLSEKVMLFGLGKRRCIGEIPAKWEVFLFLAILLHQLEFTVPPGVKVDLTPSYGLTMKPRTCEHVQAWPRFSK
Method: (§1) The present test measured the inhibition effect of CYP relating to NNK activation to various test materials after inducing CYP of a liver from a rat(Sprague-Dawley rat) by Aroclor 1254(Sigma, USA) and taking out the liver.
(§2) Aroclor 1254 was injected into the abdomen of a 7-week old male rat (Sprague-Dawley rat) in a capacity of 500 mg/kg. After 5 days, the liver was taken out in a sterile state and homogenized using 0.15M of KCl solution at 4° C. A supernatant was separated by a centrifugal separation for 10 minutes at 9000 g from the homogenate and used in the test. Activity of CYP was measured by using pentoxyresorufin(Sigma USA) which is a substrate of CYP 2B1/2/4, ethoxyresorufin(Sigma USA) which is a substrate of CYP 1A1 and methoxyresorufin(Sigma USA) which is a substrate of CYP 1A2. […] The inhibition effect for CYP activity was compared using the above reaction specimen (inhibition material), the supernatant taken out from the liver and specific substrate of each CYP. […] Each specimen has a concentration of 0.1, 0.5, 1.0 and 2.0 mg/ml and an amount of protein taken out from the liver is set to 500 μg/ml. Each substrate had 2.5 μM of stock solution and finally became 25 nM after adding 10 μl. […] The enzyme activity was measured by using a RF-5301 PC spectrofluoro photometer (SHIMADZU, Japan) from the supernatant (excitation at 522 nm and emission at 586 nm). […]

[4] = inhibition of nitrosomorpholine generation from morpholine and NaNO2 in vitro; conditions: 20 mg/ml
Method: EGCG, quercetin, catechin, vitamin C and powdered green tea were used as a control group. Each specimen was used in a concentration of 2.5, 5, 10, 15, 20 mg/ml. 200 mM of sodium nitrate not containing morpholine was used as a negative control. The specimen not containing the nitrosating agent NaNO2 was used as a blank in each reaction.
Each specimen was added into 15 ml of corning tubes according to concentration and marked with the blank, test, negative control. 1 ml of glacial acetic acid was added into each tube and 100 μl of 2 M NaNO2 was added into each tube except blank and distilled water was added to make total volume of 2 ml. After reacting for 10 minutes at 37° C., 176 μl of morpholine was added to make 2 M and the reaction was further carried out for 30 minutes at 37° C. The reaction was stopped by adding 3.8 ml of 5 N NaOH to set pH 10 to 12. According to DBA method, the specimens were measured and compared with blank group (not added NaNO2) and negative control group (not added morpholine and added 200 mM NaNO2).
Generation rate of nitrosomorpholine (NMOR %) is measured as below calculating formula 1. NMOR %=[(t0−blank)−(t30−blank)]/(t0−blank) (Calculating formula 1) • Blank; a specimen not containing nitrosating agent NaNO2 • t0; a specimen containing 200 mM of NaNO2 without morpholine • t30; a specimen normally reacted in the generation of nitrosomorpholine.

CYP 1A2 [5] = molecular target: T2, CYP 1A2; experiment: MROD (methoxyresorufin dealkylase) activity in Aroclor 1254-induced rat liver supernatant
Method: as §1, §2

[6] = DPPH free radical scavenging
Method: 1.5 ml of DPPH was placed into a cuvette and 1.5 ml of antioxidant solution was added and evenly mixed. Right after mixing, the change of absorbance (523 nm) according to time was measured and the decomposition rate was calculated. Decomposition rate=(initial absorbance of DPPH−absorbance after adding each specimen according to time)/initial absorbance of DPPH×100 (Calculating formula 3)

CN1C(=O)CC[C@H]1c1cccnc1 [cotinine]
half period ([1]; cotinine): 24 h

O=C(O)CCC(=O)c1cccnc1 [ketoic acid]
share of ketoic acid metabolized to hydroxy acid and excreted as urine ([1]; in vivo): 85%

CN1CCCC1c1cccnc1 (stereo not drawn) [nicotine]
share of nicotine conversed into cotinine ([1]; in vivo): 70-80%
share of nicotine conversed into nicotine-1-N-oxide by FMO ([1]; in vivo): 4%
share of nicotine excreted as urine through metabolism ([1]; in vivo): 80-90%
half period ([1]; nicotine): 0.5 h

O=c1c(O)c(-c2ccc(O)c(O)c2)oc2cc(O)cc(O)c12 [quercetin]
order of inhibition of activity of purified CYP 1A2 (purified CYP 1A2): EGCG>>the functional agent>>quercetin>>powdered green tea>>catechin
concentration of quercetin at which propagation of cancer cell strain was inhibited [2]: 10 µM
order of inhibition of activity of CYP 1A2 (CYP 1A2 [3]): quercetin>>the functional agent>>catechin≈powdered green tea
inhibition of generating nitromorpholine from morpholine [4]: ~75%

catechin
order of inhibition of activity of purified CYP 1A2 (purified CYP 1A2; purified enzyme): EGCG>>the functional agent>>quercetin>>powdered green tea>>catechin
order of inhibition of activity of CYP 1A2 (CYP 1A2 [5]): quercetin>>the functional agent>>catechin≈powdered green tea
inhibition of generating nitromorpholine from morpholine [4]: ~75%

epigallocatechin-3-gallate [EGCG]
order of inhibition of activity of purified CYP 1A2 (purified CYP 1A2; purified enzyme): EGCG>>the functional agent>>quercetin>>powdered green tea>>catechin
DPPH radical scavenging effect, comparison [6]: two times higher than that of the functional agent and catechin
